Consider one compound from US20210205292A1, “INHIBITORS OF CREB-CBP INTERACTION FOR TREATMENT OF LEUKEMIA” (The Board of Trustees of the Leland Stanford Junior …, priority 2016, published 2021).

The subject of series [1] is AML cell lines. The series can be described thus: Viable cell count of AML cell lines (Vi-CELL). To be noted: four AML cell lines, 48 hours; range across lines, units printed with the values; read-out: IC50, 50% reduced viable cell count compared to DMSO-treated cells. The class given is cell-based. As to the method: AML cell lines were purchased from ATCC and maintained with IMDM (Gibco) supplemented with 10% FBS (Fisher Scientific) and 1% PSG (Gibco). Cells were plated at a density of 2-4×10^5 cells/ml, and treated with various doses of Compound A in 0.1% DMSO or 0.1% DMSO alone. Cell counts and viability were determined using the Vi-CELL XR Cell Viability Analyzer (Beckman Coulter). HL-60 and KG-1 cells overexpressing CREB or CBP were generated using lentiviral gene delivery with subsequent puromycin selection and FACs sorting for GFP. CREB knockdown was achieved by infecting cells with a lentivirus expressing the shRNA sequence 5′-[…]-3′ (SEQ ID NO:). For chemotherapy combination experiments, combination index values were calculated using median effects analysis on Calcusyn software. Human patient bone marrow samples were cultured in DMEM plus 20% FBS and 1×PSG, supplemented with recombinant GM-CSF (20 ng/ml), G-CSF (20 ng/ml), SCF (50 ng/ml), IL-3 (20 ng/ml), and IL-6 (10 ng/ml). Cells were plated at a concentration of 1×10^5 cells/ml in a 12-well plate. Vehicle (0.1% DMSO) or Compound A (2 μM) was added for up to 72 hours. All samples contained >85% AML blasts and were not sorted prior to performing experiments. […] Single cell suspensions of bone marrow culture were subsequently analyzed on a D×P10 flow cytometer (Cytek). […]

Series [2] deals with KG-1 cells. The series can be described thus: Chemotherapy combination, isobolograms in KG-1 cells. The class given is cell-based. Particulars: 48 hours. As to the method:
AML cell lines were purchased from ATCC and maintained with IMDM (Gibco) supplemented with 10% FBS (Fisher Scientific) and 1% PSG (Gibco). Cells were plated at a density of 2-4×10^5 cells/ml, and treated with various doses of Compound A in 0.1% DMSO or 0.1% DMSO alone. Cell counts and viability were determined using the Vi-CELL XR Cell Viability Analyzer (Beckman Coulter). HL-60 and KG-1 cells overexpressing CREB or CBP were generated using lentiviral gene delivery with subsequent puromycin selection and FACs sorting for GFP. CREB knockdown was achieved by infecting cells with a lentivirus expressing the shRNA sequence 5′-[…]-3′ (SEQ ID NO:). For chemotherapy combination experiments, combination index values were calculated using median effects analysis on Calcusyn software. Human patient bone marrow samples were cultured in DMEM plus 20% FBS and 1×PSG, supplemented with recombinant GM-CSF (20 ng/ml), G-CSF (20 ng/ml), SCF (50 ng/ml), IL-3 (20 ng/ml), and IL-6 (10 ng/ml). Cells were plated at a concentration of 1×10^5 cells/ml in a 12-well plate. Vehicle (0.1% DMSO) or Compound A (2 μM) was added for up to 72 hours. All samples contained >85% AML blasts and were not sorted prior to performing experiments. Immunostaining and flow cytometry analyses were performed according to standard procedures. All antibodies were purchased from BD Biosciences. Single cell suspensions of bone marrow culture were subsequently analyzed on a D×P10 flow cytometer (Cytek). Bone marrow from AML patients were collected through voluntary patient participation at University of California, Los Angeles (Los Angeles, Calif., USA) and Stanford University (Palo Alto, Calif., USA) in compliance with the Institutional Review Board regulations of each institution.
To test the effects of CREB inhibition on AML cells, four AML cell lines were treated with doses of Compound A ranging from 100 pM to 10 μM for 48 hours. […] KG-1 cells were less sensitive to Compound A and expressed lower levels of CREB compared to HL-60 cells (FIG. 2, panel A). […]

The test system of series [3] is normal bone marrow progenitor cells. The series is described as follows: Methylcellulose hematopoietic cell colony assay. The class given is cell-based, human. To be noted: up to 10 mM, colonies counted on day 14. Here is the method: Human bone marrow cells from non-leukemic patients were resuspended in a volume of 0.3 mL of IMDM with 20% FBS at 5×10^5 cells/mL and mixed with varying concentrations of the Compound A (10 pM to 10 mM in 0.1% DMSO) or 0.1% DMSO control. This was added to 3 mL of methylcellulose-containing growth factors IL-3, IL-6, G-CSF, erythropoietin, SCF (Methocult GF-H4434; Stem Cell Technology) and plated. The colonies were observed daily and counted on day 14.

Series [4] can be described thus: Plasma pharmacokinetics in NSG mice, quantitative mass spectrometry. The class given is in vivo. To be noted: mouse, ip, 20 mg/kg/day, 20 mg/kg/day IP. As to the method:
FIG. 10, panels A-D, illustrates the non-toxicity and pharmacodynamics of compound Compound A. Panel A) Human AML patient sample cells (#186) were injected (2×10^6 cells) into 8 NSG mice, and mice were then treated with intravenous 0.1% DMSO or 2.3 mg/kg Compound A IV once daily. […] Compound A plasma concentration was measured by quantitative mass spectrometry. […] Panel C). […] Numbers shown are averages of values from 3 mice SE.
To assess the potential in vivo toxicities of Compound A, four groups of five mice not injected with AML cells were treated with 2.3 mg/kg Compound A intravenously daily, or 20, 40 or 60 mg/kg intraperitoneally (IP) daily for 28 days.

Series [5] has as its system Bcl-2, Mcl-1 expression in KG-1 cells. The series can be described thus: Western blot of anti-apoptotic proteins in KG-1 cells. The class given is cell-based. As to the method:
Cells were lysed in RIPA buffer (Sigma), and the protein concentrations were determined by BCA assay (Thermo Scientific Pierce). Lysates were solubilized in 6×SDS PAGE buffer and […] of protein was loaded into 6-15% SDS PAGE gels, pheresed, and then transferred onto […] PVDF membrane (Millipore). Primary antibodies were applied at a dilution of 1:1000. Anti-Bcl-2, -Bax, -Mcl-1, -Bcl-XL, -Cyclin A and -Cyclin D1 antibodies were purchased from Cell Signaling Technologies. Anti-total acetylated histone and -ac-H3K27 were purchased from Santa Cruz Biotechnologies. Anti-actin and -CREB antibodies were purchased from upstate. Secondary antibodies were used at a 1:2500 dilution and purchased from Thermo Scientific/Pierce. WesternBright ECL was used for image acquisition on Image Lab software (Bio-Rad).
The balance between pro- and anti-apoptotic protein expression contributes to cell fate decisions. CREB regulates the expression of several anti-apoptotic proteins, including Bcl-2, Bcl-XL and Mcl-1. Bcl-2 expression in particular is known to mediate resistance to chemotherapy and influence clinical outcome in a number of cancer types, including AML. The ability of Compound A to cause apoptosis by disrupting the CREB-driven expression of these anti-apoptotic proteins was examined. In HL-60 cells treated with Compound A, apoptosis is induced in a dose- and time-dependent manner. […]
In general terms: A western blot detects proteins with antibodies after separation by electrophoresis.

A word on the IC50: it is the concentration that gives 50% inhibition. Usually half-life stands for the time in which the quantity being followed falls by half. In the case of `N#Cc1ccc(NC(=O)c2cc3ccccc3cc2O)cc1` [Compound A, N-(4-cyanophenyl)-3-hydroxy-2-naphthamide], the IC50 in series [1] lay in the range of 870 to 2300 nM. Also, the “interaction with daunorubicin and cytarabine (isobolograms)” value in series [2] is recorded as “synergistic”. Further, the “Combination Index (CI)” value in series [2] (Compound A with cytarabine) and in series [2] (Compound A with daunorubicin) was “less than 1” each time. The colony formation entry in series [3] is listed as “no significant decrease in colony formation”. This compound also gave a half-life in series [4] of 4.3 h. In addition, the Bcl-2 expression entry in series [5] is given as “decreased Bcl-2 expression”. Also, the Mcl-1 expression result in series [5] is recorded as “pronounced decrease in Mcl-1”.
